Measured values: patent US9989520B2, “Human hepatoma cell line HLCZ01 and uses thereof” (HUNAN PROVINCIAL TUMOR HOSPITAL, priority 2013, dated 2018)

B1: TRAIL (protein, UniProt P50591 1-281, looked up)
Tumor necrosis factor ligand …: MAMMEVQGGPSLGQTCVLIVIFTVLLQSLCVAVTYVYFTNELKQMQDKYSKSGIACFLKEDDSYWDPNDEESMNSPCWQVKWQLRQLVRKMILRTSEETISTVQEKQQNISPLVRERGPQRVAAHITGTRGRSNTLSSPNSKNEKALGRKINSWESSRSGHSFLSNLHLRNGELVIHEKGFYYIYSQTYFRFQEEIKENTKNDKQMVQYIYKYTSYPDPILLMKSARNSCWSKDAEYGLYSIYQGGIFELKENDRIFVSVTNEHLIDMDHEASFFGAFLVG
notes: TRAIL at the current phase II of clinical trail

What was measured:
hepatitis C virus = experiment: α-interferon treatment of HCV-infected HLCZ01 cells (amount of HCV, quantitative PCR); type: cell-based, hepatitis C virus (in human hepatoma cell line HLCZ01); conditions: with respect to doses of α-interferon and time (hours), FIG. 10
Experimental: FIG. 10 is a column diagram for the human hepatoma cell line HLCZ01 according to the above first embodiment of the present invention, illustrating the amount of HCV with respect to the amount of interferon used and time (hours).
1. The human hepatoma cell line HLCZ01 cells and Huh7.5 cells are placed on the 6-well cell culture plate (200,000/well). After 24 hours, the medium is replaced with medium containing 2% FBS, and the cells are infected by HCV. The medium is changed after 24 hours. Huh7.5 cells and human hepatoma cell line HLCZ01 are cultured for 1 day, 2 days, 3 days and 6 days respectively, and TRIZOL is used to extract total RNA from the above mentioned two cell lines at different time points after virus infection. One microgram of the total RNA is reversely transcribed into cDNA, and 1 μL of cDNA are used as templates for processing quantitative PCR.
According to the human hepatoma cell line HLCZ01 of the present invention, the human hepatoma cell line HLCZ01 can also be used for the preparation, screening or evaluating anti-HCV drugs. […] Therefore, the human hepatoma cell line HLCZ01 of the present invention can be used for the preparation, screening or evaluating the anti-HCV drugs.

hepatitis B virus = experiment: α-interferon treatment of HBV-infected HLCZ01 cells (amount of HBV, quantitative PCR); type: cell-based, hepatitis B virus (in human hepatoma cell line HLCZ01); conditions: based on amount of α-interferon added and processing time (days), FIG. 9
Experimental: FIG. 9 is a column diagram for the human hepatoma cell line HLCZ01 according to the above second embodiment of the present invention, illustrating the amount of HBV with respect to the amount of interferon used and time (days).
The human hepatoma cell line HLCZ01 is placed on the 60 mm culture plate. After 24 hours, the medium (DMEM medium) is replaced to the mixture of a supernatant of HepaG2.2.15 cells with a complete medium (1:1 by volume ratio), and then the human hepatoma cell line HLCZ01 is continuously cultured. The cells were passaged every 3 to 5 days. DNA from HBV-infected human hepatoma cell line HLCZ01 was isolated every three days. One microgram of DNA from HBV-infected HLCZ01 cells is used as template for processing quantitative PCR and HBV DNA level in the human hepatoma cell line HLCZ01 is detected.
According to the human hepatoma cell line HLCZ01 of the present invention, the human hepatoma cell line HLCZ01 can also be used for the preparation, screening or evaluating the anti-HBV drugs. […] Therefore, the human hepatoma cell line HLCZ01 of the present invention can be used for the preparation, screening or evaluating the anti-HBV drugs.

HLCZ01 cells = experiment: TRAIL sensitivity of HLCZ01 cells by flow cytometry; type: cell-based, human; conditions: HLCZ01 cells treated with TRAIL, FIG. 11

Row | Molecule | amount of virus in HCV-infected HLCZ01 cells (hepatitis C virus) | amount of HBV in the human hepatoma cell line HLCZ01 (hepatitis B virus) | death of the HLCZ01 cells (HLCZ01 cells)
1 | α-interferon | able to reduce the amount of virus in HCV-infected HLCZ01 cells | able to reduce the amount of HBV in the human hepatoma cell line HLCZ01 | –
2 | B1 | – | – | able to induce the death of the HLCZ01 cells
